The record followed here is ChEMBL document CHEMBL1914304 (J Med Chem, 2011).

For series [1], the system named is HEK293. As to the kind of experiment: Cytotoxicity against human HEK293 cells after 72 hrs by luminescence assay. Format: cell-based. Conditions: hek293, 72 h.
Series [2] concerns Raji. The experiment in a line: Cytotoxicity against human Raji cells after 72 hrs by luminescence assay. Format: cell-based.
For series [3], the system named is HepG2. As to the kind of experiment: Cytotoxicity against human HepG2 cells after 72 hrs by luminescence assay. As to conditions: hepg2, 72 h. Format: cell-based.
Series [4] relates to BJ. As to the kind of experiment: Cytotoxicity against human BJ cells after 72 hrs by luminescence assay. In kind it is cell-based.
Series [5] can be described thus: Selectivity ratio of EC50 for human HepG2 cells to EC50 for Plasmodium falciparum.

As for `CN1CCN(CC(O)COc2ccccc2C(=O)CCc2ccc(F)cc2)CC1.Cl` (racemic), the Activity entry in series [1], in series [2], in series [3] and in series [4] was “Non-toxic” each time. Moreover, the selectivity ratio in series [5] is over 10.

Regarding `CCN1CCN(CC(O)COc2ccccc2C(=O)CCc2ccc(F)cc2)CC1.Cl` (racemic), the Activity result in series [1], in series [2], in series [3] and in series [4] was “Non-toxic” in each case. Also, the selectivity ratio in series [5] is over 10.

In the case of `Cl.O=C(CCc1ccc(F)cc1)c1ccccc1OCC(O)CN1CCOCC1` (racemic), the Activity entry in series [1], in series [2], in series [3] and in series [4] was “Non-toxic” in each case. In addition, the selectivity ratio in series [5] was over 10.

For `Cl.O=C(CCc1ccccc1)c1cc(F)ccc1OCC(O)CN1CCC(Cc2ccccc2)CC1` (racemic), the Activity entry in series [1], in series [2], in series [3] and in series [4] was “Non-toxic” throughout. Further, the selectivity ratio in series [5] is over 10.

As for `Cl.O=C(CCc1ccccc1)c1cc(F)ccc1OCC(O)CN1CCC(O)(Cc2ccccc2)CC1` (racemic), the Activity entry in series [1], in series [2], in series [3] and in series [4] was “Non-toxic” in each case. Moreover, the selectivity ratio in series [5] was over 10.

`Cl.O=C(CCc1ccccc1)c1cc(F)ccc1OCC(O)CN1CCNCC1` (racemic): the Activity result in series [1], in series [2], in series [3] and in series [4] was “Non-toxic” each time. Besides, in series [5], the selectivity ratio is over 10.

For `Cl.O=C(CCc1ccccc1)c1cc(F)ccc1OCC(O)CN1CCC(c2ccccc2)CC1` (racemic), the Activity result in series [1], in series [2], in series [3] and in series [4] was “Non-toxic” each time. In series [5], the selectivity ratio is over 10.

For `Cl.O=C(CCc1ccccc1)c1cc(F)ccc1OCC(O)CN1CCN(c2ccc(Cl)cc2)CC1` (racemic), the Activity entry in series [1], in series [2], in series [3] and in series [4] was “Non-toxic” throughout. The selectivity ratio in series [5] is over 10.

In the case of `Cl.O=C(CCc1ccccc1)c1cc(F)ccc1OCC(O)CN1CCN(c2ccccc2)CC1` (racemic), the Activity entry in series [1], in series [2], in series [3] and in series [4] was “Non-toxic” in each case. The selectivity ratio in series [5] is over 10.

`Cl.O=C(CCc1ccccc1)c1cc(F)ccc1OCC(O)CN1CCN(Cc2ccccc2)CC1` (racemic): the Activity result in series [1], in series [2], in series [3] and in series [4] was “Non-toxic” in each case. The selectivity ratio in series [5] is over 10.

As to `Cc1ccccc1N1CCN(CC(O)COc2ccc(F)cc2C(=O)CCc2ccccc2)CC1.Cl` (racemic), the Activity result in series [1], in series [2], in series [3] and in series [4] was “Non-toxic” throughout. Also, the selectivity ratio in series [5] was over 10.

With `Cc1cccc(N2CCN(CC(O)COc3ccc(F)cc3C(=O)CCc3ccccc3)CC2)c1.Cl` (racemic), the Activity entry in series [1], in series [2], in series [3] and in series [4] was “Non-toxic” in each case. The selectivity ratio in series [5] is over 10.

Turning to `Cc1ccc(N2CCN(CC(O)COc3ccc(F)cc3C(=O)CCc3ccccc3)CC2)cc1.Cl` (racemic), the Activity result in series [1], in series [2], in series [3] and in series [4] was “Non-toxic” each time. Moreover, the selectivity ratio in series [5] is over 10.

In the case of `COc1ccccc1N1CCN(CC(O)COc2ccc(F)cc2C(=O)CCc2ccccc2)CC1.Cl` (racemic), the Activity result in series [1], in series [2], in series [3] and in series [4] was “Non-toxic” each time. For the same compound, the selectivity ratio in series [5] was over 10.

In the case of `COc1cccc(N2CCN(CC(O)COc3ccc(F)cc3C(=O)CCc3ccccc3)CC2)c1.Cl` (racemic), the Activity entry in series [1], in series [2], in series [3] and in series [4] was “Non-toxic” throughout. Also, the selectivity ratio in series [5] is over 10.

Consider `COc1ccc(N2CCN(CC(O)COc3ccc(F)cc3C(=O)CCc3ccccc3)CC2)cc1.Cl` (racemic), for which the Activity result in series [1], in series [2], in series [3] and in series [4] was “Non-toxic” each time. Further, in series [5], the selectivity ratio was over 10.

Turning to `Cl.O=C(CCc1ccccc1)c1cc(F)ccc1OCC(O)CN1CCN(c2ccccc2Cl)CC1` (racemic), the Activity result in series [1], in series [2], in series [3] and in series [4] was “Non-toxic” each time. In addition, the selectivity ratio in series [5] was over 10.

For the compound `Cl.O=C(CCc1ccccc1)c1cc(F)ccc1OCC(O)CN1CCN(c2ccc(Cl)c(Cl)c2)CC1` (racemic), the Activity entry in series [1], in series [2], in series [3] and in series [4] was “Non-toxic” in each case. Further, the selectivity ratio in series [5] was over 10.

With `Cl.O=C(CCc1ccccc1)c1cc(F)ccc1OCC(O)CN1CCN(c2ccccc2F)CC1` (racemic), the Activity entry in series [1], in series [2], in series [3] and in series [4] was “Non-toxic” in each case. Besides, the selectivity ratio in series [5] is over 10.

For the compound `Cl.O=C(CCc1ccccc1)c1cc(F)ccc1OCC(O)CN1CCN(c2ccc(F)cc2)CC1` (racemic), the Activity result in series [1], in series [2], in series [3] and in series [4] was “Non-toxic” in each case. In addition, in series [5], the selectivity ratio is over 10.

On to `Cl.O=C(CCc1ccccc1)c1cc(F)ccc1OCC(O)CN1CCN(c2ccc([N+](=O)[O-])cc2)CC1` (racemic), for which the Activity entry in series [1], in series [2], in series [3] and in series [4] was “Non-toxic” throughout. In addition, the selectivity ratio in series [5] was over 10.

`Cl.O=C(CCc1ccccc1)c1cc(F)ccc1OCC(O)CN1CC[N+]([O-])(c2ccc(Cl)cc2)CC1` (racemic): the Activity entry in series [1], in series [2], in series [3] and in series [4] was “Non-toxic” throughout. Also, in series [5], the selectivity ratio is over 10.
